Data taken from ChEMBL document CHEMBL1131279, “Endothiopeptide inhibitors of HIV-1 protease” (Bioorg Med Chem Lett, 1998).
Starred links: 1 amine or outer side, 2 acyl side, 3 side chain; linkers in the order of their positions; H or OH if unused. Non-standard residues stand in square brackets, D forms with d. Residues, ends and D or L forms follow the SMILES beside them. *: point of attachment. X2 = O=C([C@H](Cc1ccccc1)NC(=S)[C@H](Cc1ccccc1)N[*:1])[*:2]; X3 = O=C([C@H](Cc1ccccc1)CC(O)[C@H](Cc1ccccc1)N[*:1])[*:2]; X4 = CC(C)[C@H](/N=C(\S)[C@H](Cc1ccccc1)N[*:1])C(=O)[*:2]; AlaΨ(CSNH)Ala = C[C@H](NC(=S)[C@H](C)N[*:1])C(=O)[*:2]; X5 = C[C@H](N[*:1])C(=S)N[C@@H](Cc1ccccc1)C(=O)[*:2]; X1 = COC(=O)[C@@H](NC(=S)[C@@H](N*)C(C)C)C(C)C; Cbz = O=C(OCc1ccccc1)*; Boc = CC(C)(C)OC(=O)*

Columns and labels:
[1] = molecular target: T1, Human immunodeficiency virus type 1 protease (Human immunodeficiency virus 1, UniProt Q72874); assay: Binding affinity was evaluated for competitive inhibition of HIV-1 Protease
[2] = molecular target: T1, Human immunodeficiency virus type 1 protease; assay: Inhibitory activity against HIV-1 Protease was determined

Row | Compound | Ki [1] [µM] | IC50 [2] [µM] | Ki [2] [µM]
1 | COC(=O)[C@@H](NC(=S)[C@@H](NC(=O)[C@H](Cc1ccccc1)NC(=O)[C@H](Cc1ccccc1)NC(=O)[C@H](C)NC(=O)[C@H](C)NC(=O)OC(C)(C)C)C(C)C)C(C)C (Boc-AAFF-X1) | 3.4 | 4.5 | –
2 | COC(=O)[C@@H](NC(=O)[C@@H](/N=C(\S)[C@H](Cc1ccccc1)NC(=O)[C@H](Cc1ccccc1)NC(=O)[C@H](C)NC(=O)[C@H](C)NC(=O)OC(C)(C)C)C(C)C)C(C)C (Boc-AAF[X4]V-OMe) | – | > 200 | –
3 | COC(=O)[C@@H](NC(=O)[C@@H](NC(=O)[C@H](Cc1ccccc1)NC(=S)[C@H](Cc1ccccc1)NC(=O)[C@H](C)NC(=O)[C@H](C)NC(=O)OC(C)(C)C)C(C)C)C(C)C (Boc-AA[X2]VV-OMe) | – | 18 | –
4 | COC(=O)[C@@H](NC(=O)[C@@H](NC(=O)[C@H](Cc1ccccc1)NC(=O)[C@H](Cc1ccccc1)NC(=S)[C@H](C)NC(=O)[C@H](C)NC(=O)OC(C)(C)C)C(C)C)C(C)C (Boc-A[X5]FVV-OMe) | – | 51 | –
5 | COC(=O)[C@@H](NC(=O)[C@@H](NC(=O)[C@H](Cc1ccccc1)NC(=O)[C@H](Cc1ccccc1)NC(=O)[C@H](C)/N=C(\S)[C@H](C)NC(=O)OC(C)(C)C)C(C)C)C(C)C (Boc-[AlaΨ(CSNH)Ala]FFVV-OMe) | – | 160 | –
6 | COC(=O)[C@@H](NC(=O)[C@@H](NC(=O)[C@H](Cc1ccccc1)CC(O)[C@H](Cc1ccccc1)NC(=O)[C@H](C)NC(=O)[C@H](C)NC(=O)OCc1ccccc1)C(C)C)C(C)C (some centres not stated) (Cbz-AA[X3]VV-OMe) | – | – | 0.0004
